ChEMBL document CHEMBL1131279, “Endothiopeptide inhibitors of HIV-1 protease” (Bioorg Med Chem Lett, 1998)
Starred links: 1 amine or outer side, 2 acyl side, 3 side chain; linkers in the order of their positions; H or OH if unused. Non-standard residues stand in square brackets, D forms with d. Residues, ends and D or L forms follow the SMILES beside them. *: point of attachment. X2 = O=C([C@H](Cc1ccccc1)NC(=S)[C@H](Cc1ccccc1)N[*:1])[*:2]; X3 = O=C([C@H](Cc1ccccc1)CC(O)[C@H](Cc1ccccc1)N[*:1])[*:2]; X4 = CC(C)[C@H](/N=C(\S)[C@H](Cc1ccccc1)N[*:1])C(=O)[*:2]; AlaΨ(CSNH)Ala = C[C@H](NC(=S)[C@H](C)N[*:1])C(=O)[*:2]; X5 = C[C@H](N[*:1])C(=S)N[C@@H](Cc1ccccc1)C(=O)[*:2]; X1 = COC(=O)[C@@H](NC(=S)[C@@H](N*)C(C)C)C(C)C; Cbz = O=C(OCc1ccccc1)*; Boc = CC(C)(C)OC(=O)*

What was measured:
[1] = biological target: T1, Human immunodeficiency virus type 1 protease (Human immunodeficiency virus 1, UniProt Q72874); assay: Binding affinity was evaluated for competitive inhibition of HIV-1 Protease
[2] = biological target: T1, Human immunodeficiency virus type 1 protease; assay: Inhibitory activity against HIV-1 Protease was determined

For `COC(=O)[C@@H](NC(=S)[C@@H](NC(=O)[C@H](Cc1ccccc1)NC(=O)[C@H](Cc1ccccc1)NC(=O)[C@H](C)NC(=O)[C@H](C)NC(=O)OC(C)(C)C)C(C)C)C(C)C` (Boc-AAFF-X1), the Ki [1] was 3.4 µM and the IC50 [2] was 4.5 µM.

`COC(=O)[C@@H](NC(=O)[C@@H](/N=C(\S)[C@H](Cc1ccccc1)NC(=O)[C@H](Cc1ccccc1)NC(=O)[C@H](C)NC(=O)[C@H](C)NC(=O)OC(C)(C)C)C(C)C)C(C)C` (Boc-AAF[X4]V-OMe) gave an IC50 [2] of over 200 µM.

Work on `COC(=O)[C@@H](NC(=O)[C@@H](NC(=O)[C@H](Cc1ccccc1)NC(=S)[C@H](Cc1ccccc1)NC(=O)[C@H](C)NC(=O)[C@H](C)NC(=O)OC(C)(C)C)C(C)C)C(C)C` (Boc-AA[X2]VV-OMe) yielded an IC50 [2] of 18 µM.

With `COC(=O)[C@@H](NC(=O)[C@@H](NC(=O)[C@H](Cc1ccccc1)NC(=O)[C@H](Cc1ccccc1)NC(=S)[C@H](C)NC(=O)[C@H](C)NC(=O)OC(C)(C)C)C(C)C)C(C)C` (Boc-A[X5]FVV-OMe) the IC50 [2] was 51 µM.

With `COC(=O)[C@@H](NC(=O)[C@@H](NC(=O)[C@H](Cc1ccccc1)NC(=O)[C@H](Cc1ccccc1)NC(=O)[C@H](C)/N=C(\S)[C@H](C)NC(=O)OC(C)(C)C)C(C)C)C(C)C` (Boc-[AlaΨ(CSNH)Ala]FFVV-OMe) the IC50 [2] was 160 µM.

Work on `COC(=O)[C@@H](NC(=O)[C@@H](NC(=O)[C@H](Cc1ccccc1)CC(O)[C@H](Cc1ccccc1)NC(=O)[C@H](C)NC(=O)[C@H](C)NC(=O)OCc1ccccc1)C(C)C)C(C)C` (some centres not stated) (Cbz-AA[X3]VV-OMe) yielded a Ki [2] of 0.0004 µM.
